Assay results: the supplement of paper PMC4862054

How the values were obtained:
Settings in all cases: incubation time: 72 h
[1] = test system: MCF-10A; experiment: drug sensitivity score (DSS), CellTiter-Glo (DSS (AUC-based score)); higher = stronger drug effect (viability inhibition or cytotoxicity); extreme values may be limits of the assay
How it was run: (§1)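 Breast cancer cell lines were seeded in 20 µl suspension into 384-well plates already holding compound and incubated for 72 h. Each compound was tested at 5 concentrations in 10-fold steps across its own 10,000-fold range. Plates were normalised to 0.1 % DMSO and a positive kill control after CellTox Green and then CellTiter-Glo readings. The area under the fitted dose-response curve served as the basis for the drug sensitivity score.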

[2] = test system: MDA-MB-436; experiment: as above
How it was run: as §1

[3] = test system: HCC1143; experiment: as above
How it was run: as §1

[4] = test system: MFM-223; experiment: as above
How it was run: as §1

[5] = test system: MDA-MB-453; experiment: as above
How it was run: as §1

[6] = test system: DU-4475; experiment: as above
How it was run: as §1

[7] = test system: HDQ-P1; experiment: as above
How it was run: as §1

[8] = test system: HCC1599; experiment: as above
How it was run: as §1

[9] = test system: MDA-MB-468; experiment: normalised viability (% of control), CellTiter-Blue; higher = more viable cells (about 100 = DMSO control)
How it was run: (§2)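 Each entry is normalised viability at a single listed concentration within a series. It comes from breast cancer cell lines incubated 72 h with compound in 384-well plates, then measured with CellTiter-Blue fluorescence at 560/590 nm. Every plate was normalised between vehicle (100) and a positive kill control (0).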

[10] = test system: HCC1143; experiment: as above
How it was run: as §2

[11] = test system: HCC1937; experiment: as above
How it was run: as §2

[12] = test system: BT-474; experiment: as above
How it was run: as §2

[13] = test system: CAL-51; experiment: as above
How it was run: as §2

[14] = test system: SK-BR-3; experiment: as above
How it was run: as §2

[15] = test system: CAL-85-1; experiment: as above
How it was run: as §2

[16] = test system: BT-549; experiment: as above
How it was run: as §2

[17] = test system: HDQ-P1; experiment: as above
How it was run: as §2

[18] = test system: HCC1599; experiment: as above
How it was run: as §2

[19] = test system: MDA-MB-231; experiment: as above
How it was run: as §2

[20] = test system: MDA-MB-453; experiment: normalised viability (% of control), CellTiter-Blue; higher = more viable cells (about 100 = DMSO control)
Description: (§3)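 DSRT, CellTiter-Blue viability, 72 h incubation. Signal is normalised to DMSO and benzethonium chloride controls. Value is the normalised response at dose 8.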

[21] = test system: CAL-51; experiment: as above; remark: listed apart in the source
Description: as §3

[22] = test system: DU-4475; experiment: as above
Description: as §3

[23] = test system: CAL-85-1; experiment: as above; remark: listed apart in the source
Description: as §3

[24] = test system: CAL-148; experiment: as above
Description: as §3

[25] = test system: HDQ-P1; experiment: as above; remark: listed apart in the source
Description: as §3

Nc1nc2[nH]cc(CCc3ccc(C(=O)N[C@@H](CCC(=O)O)C(=O)O)cc3)c2c(=O)[nH]1 [Pemetrexed]
Settings | drug sensitivity score
[1] | 0
[2] | 5.36
[3] | 0
[4] | 0
[5] | 0
[6] | 0
[7] | 2.5
[8] | 0

Settings | normalised viability [%]
[9], 10 nM | 97.7
[9], 1000 nM | 71.9
[9], 10000 nM | 99.5
[10], 10 nM | 90.8
[10], 1000 nM | 77.4
[10], 10000 nM | 72.2
[11], 10 nM | 89
[11], 1000 nM | 93.4
[11], 10000 nM | 85.5
[12], 10 nM | 123
[12], 1000 nM | 112
[12], 10000 nM | 122
[13], 3 nM | 105
[13], 30 nM | 100
[13], 100 nM | 107
[14], 10 nM | 97.5
[14], 1000 nM | 59.2
[14], 10000 nM | 62.2
[15], 3 nM | 99.6
[15], 30 nM | 91
[15], 100 nM | 101
[16], 10 nM | 90.8
[16], 1000 nM | 90.7
[16], 10000 nM | 79.6
[17], 3 nM | 110
[17], 30 nM | 100
[17], 100 nM | 101
[18], 10 nM | 106
[18], 1000 nM | 80.2
[18], 10000 nM | 106
[19], 10 nM | 97.5
[19], 1000 nM | 98.9
[19], 10000 nM | 92.4
[20], 3000 nM | 83
[21], 3000 nM | 109
[22], 3000 nM | 124
[23], 3000 nM | 62.6
[24], 3000 nM | 99.3
[25], 3000 nM | 109

Nc1ccccc1NC(=O)c1ccc(CNC(=O)OCc2cccnc2)cc1 [Entinostat]
Settings | drug sensitivity score
[1] | 0
[2] | 2.51
[3] | 3.36
[4] | 3.34
[5] | 6.08
[6] | 4.63
[7] | 2.05
[8] | 4.34

Settings | normalised viability [%]
[9], 10 nM | 102
[9], 1000 nM | 79.8
[9], 10000 nM | 22.9
[10], 10 nM | 84.5
[10], 1000 nM | 89.6
[10], 10000 nM | 31.2
[11], 10 nM | 124
[11], 1000 nM | 82.4
[11], 10000 nM | 56.8
[12], 10 nM | 108
[12], 1000 nM | 97
[12], 10000 nM | 31.9
[13], 3 nM | 116
[13], 30 nM | 106
[13], 100 nM | 109
[14], 10 nM | 108
[14], 1000 nM | 45.2
[14], 10000 nM | 2.8
[15], 3 nM | 98.1
[15], 30 nM | 100
[15], 100 nM | 99.6
[16], 10 nM | 110
[16], 1000 nM | 102
[16], 10000 nM | 61.4
[17], 3 nM | 103
[17], 30 nM | 110
[17], 100 nM | 102
[18], 10 nM | 122
[18], 1000 nM | 86.6
[18], 10000 nM | 19.6
[19], 10 nM | 99.2
[19], 1000 nM | 78.7
[19], 10000 nM | 37.7
[20], 3000 nM | 50.3
[21], 3000 nM | 108
[22], 3000 nM | 103
[23], 3000 nM | 53.7
[24], 3000 nM | 58.7
[25], 3000 nM | 80

CC1=C(/C=C/C(C)=C/C=C/C(C)=C/C(=O)O)C(C)(C)CCC1 [Tretinoin]
Settings | drug sensitivity score
[1] | 4.05
[2] | 0
[3] | 0
[4] | 0
[5] | 2.34
[6] | 0
[7] | 0
[8] | 0.765

Settings | normalised viability [%]
[9], 10 nM | 99
[9], 1000 nM | 117
[9], 10000 nM | 113
[10], 10 nM | 86.2
[10], 1000 nM | 89.3
[10], 10000 nM | 88.1
[11], 10 nM | 106
[11], 1000 nM | 80.6
[11], 10000 nM | 88.1
[12], 10 nM | 129
[12], 1000 nM | 111
[12], 10000 nM | 115
[13], 3 nM | 106
[13], 30 nM | 94.6
[13], 100 nM | 99.6
[14], 10 nM | 103
[14], 1000 nM | 66
[14], 10000 nM | 45
[15], 3 nM | 85.3
[15], 30 nM | 92.2
[15], 100 nM | 95.7
[16], 10 nM | 87.5
[16], 1000 nM | 100
[16], 10000 nM | 106
[17], 3 nM | 120
[17], 30 nM | 122
[17], 100 nM | 107
[18], 10 nM | 114
[18], 1000 nM | 77.4
[18], 10000 nM | 84.2
[19], 10 nM | 103
[19], 1000 nM | 104
[19], 10000 nM | 109
[20], 3000 nM | 94.1
[21], 3000 nM | 90.8
[22], 3000 nM | 99
[23], 3000 nM | 88.5
[24], 3000 nM | 80.1
[25], 3000 nM | 121

CC[C@@H]1C(=O)N(C)c2cnc(Nc3ccc(C(=O)NC4CCN(C)CC4)cc3OC)nc2N1C1CCCC1 [BI 2536]
Settings | drug sensitivity score
[1] | 9.18
[2] | 14
[3] | 15.7
[4] | 16.7
[5] | 11.5
[6] | 7.02
[7] | 4.76
[8] | 12.4

Settings | normalised viability [%]
[9], 1 nM | 107
[9], 100 nM | 52.2
[9], 1000 nM | 55.1
[10], 1 nM | 109
[10], 100 nM | 51.3
[10], 1000 nM | 52.4
[11], 1 nM | 107
[11], 100 nM | 24
[11], 1000 nM | 28.3
[12], 1 nM | 116
[12], 100 nM | 89.1
[12], 1000 nM | 100
[13], 0.3 nM | 99.2
[13], 3 nM | 90.5
[13], 10 nM | 63.9
[14], 1 nM | 99.7
[14], 100 nM | 18.4
[14], 1000 nM | 23.1
[15], 0.3 nM | 101
[15], 3 nM | 79.7
[15], 10 nM | 40.5
[16], 1 nM | 85.2
[16], 100 nM | 38.6
[16], 1000 nM | 44.2
[17], 0.3 nM | 126
[17], 3 nM | 77
[17], 10 nM | 74.2
[18], 1 nM | 78.7
[18], 100 nM | 81.5
[18], 1000 nM | 61.3
[19], 1 nM | 103
[19], 100 nM | 41.8
[19], 1000 nM | 41
[20], 300 nM | 39.5
[21], 300 nM | 10.6
[22], 300 nM | 32.9
[23], 300 nM | 61.8
[24], 300 nM | 41.5
[25], 300 nM | 65.2
